According to US8664221B2 (Santen Pharmaceutical Co., Ltd., priority 2008, dated 2014):

The compounds below were run on IL-6 production induced by lipopolysaccharide (LPS) in human corneal epithelial cells (HCE-T) (assay: Inhibition of LPS-induced IL-6 production in human corneal epithelial cells (GR agonist activity)). Conditions: Corneal epithelial cell, 10 μL of 100 μM test compound solution per well, 4 hours incubation, efficacy relative to DEX.
Type: cell-based
Method: In order to evaluate a GR agonist activity of the present compound, the inhibitory effects on the IL-6 production induced by lipopolysaccharide (LPS) in human corneal epithelial cells. IL-6 levels in the conditioned medium were measured using the HTRF human IL-6 Kit (boehringer-Ingelheim, Cat No. 62IL6PEB), and the procedure was carried out according to the protocol attached to the kit. Hereinafter, the specific method will be described.
LPS solution: After LPS was dissolved in phosphate buffer solution (hereinafter referred to as PBS(−)), the resulting solution was diluted with 10% FBS-DMEM/F12 medium, whereby a 1 μg/mL LPS solution was prepared.
After a test compound was dissolved in dimethylsulfoxide (hereinafter referred to as DMSO), the resulting solution was diluted with 10% FBS-DMEM/F12 medium, whereby a 100 μM test compound solution was prepared. A 100 μM DEX solution was prepared by the same method, and the inhibitory ratio of IL-6 production of DEX was evaluated to use for calculating efficacy (% DEX).
Used cell: SV40-immortalized human corneal epithelial cells (HCE-T) (RIKEN)
1) HCE-T cells were harvested, and seeded at 2.0×10^4 cells/0.1 mL/well in a 96-well plate.
2) After incubation overnight, the medium was removed and a 80 μL of new 10% FBS-DMEM/Ham's F12 medium was added into each well.
3) A 10 μL of test compounds solution was added into each well.
4) A 10 μL of LPS solution was added into each well.
5) As a negative control, a 10 μL of 10% FBS-DMEM/Ham's F12 medium was added into each well instead of a test compound solution and a LPS solution.
6) As a positive control, a 10 μL of 10% FBS-DMEM/Ham's F12 medium containing 1% DMSO was added into each well instead of a test compound solution.
7) After 4 hours incubation, supernatants were collected and IL-6 levels in the supernatants were quantitated using the HTRF human IL-6 Kit.
8) The inhibition ratio of IL-6 production (%) was calculated according to the following equation.
The inhibition ratio of IL-6 production (%) was calculated according to the following equation. The inhibition ratio of IL-6 production (%)=100×{1−(IL-6 level in each group−mean value of IL-6 level in negative control)/(mean value of IL-6 level in positive control−mean value of IL-6 level in negative control)} (%)
Furthermore, the inhibition ratio of IL-6 production (efficacy (% DEX)) was also calculated according to the following equation. Efficacy(% DEX)=100×{(mean value of IL-6 inhibition in compound-treated group)/(mean value of IL-6 inhibition in DEX-treated group)} (%) (Results and Discussion)
`COc1cc(OS(=O)(=O)C2CCCCC2)ccc1-c1ccc2c(c1COc1cc(F)ccc1C)N(C)C(=O)C(C)(C)N2` [Compound No. 1-17, 7-(4-Cyclohexylsulfonyloxy-2-methoxyphenyl)-8-(5-fluoro-2-methylphenoxymethyl)-1,3,3-trimethyl-3,4-dihydro-1H-quinoxalin-2-one] showed an Emax of 83%.
`COc1cc(OS(=O)(=O)CC(C)C)ccc1-c1ccc2c(c1COC(=O)c1ccc(C)s1)N(C)C(=O)C(C)(C)N2` [Compound No. 1-21, 7-(4-Isobutylsulfonyloxy-2-methoxyphenyl)-8-(5-methylthiophen-2-ylcarbonyloxymethyl)-1,3,3-trimethyl-3,4-dihydro-1H-quinoxalin-2-one] showed an Emax of 71%.
`COc1cc(OS(C)(=O)=O)ccc1-c1ccc2c(c1COc1cc([N+](=O)[O-])ccc1C)N(C)C(=O)C(C)(C)N2` [Compound No. 1-36, 7-(2-Methoxy-4-methylsulfonyloxyphenyl)-8-(2-methyl-5-nitro-phenoxymethyl)-1,3,3-trimethyl-3,4-dihydro-1H-quinoxalin-2-one] gave an Emax of 72%.
`COc1cc(OS(C)(=O)=O)ccc1-c1ccc2c(c1COC(=O)c1ccc(C)s1)N(C)C(=O)C(C)(C)N2` [Compound No. 1-3, 7-(2-Methoxy-4-methylsulfonyloxyphenyl)-8-(5-methylthiophen-2-ylcarbonyloxymethyl)-1,3,3-trimethyl-3,4-dihydro-1H-quinoxalin-2-one] gave an Emax of 70%.
`CCCNCCCS(=O)(=O)Oc1ccc(-c2ccc3c(c2COc2cc(F)ccc2C)N(C)C(=O)C(C)(C)N3)c(OC)c1` [Compound No. 3-2, 8-(5-Fluoro-2-methylphenoxymethyl)-7-[2-methoxy-4-(3-propylaminopropyl-sulfonyloxy)phenyl]-1,3,3-trimethyl-3,4-dihydro-1H-quinoxalin-2-one] was tested, and the Emax was 70%.
For `COc1cc(OS(=O)(=O)C2CCCC2)ccc1-c1ccc2c(c1COC(=O)c1ccc(C)s1)N(C)C(=O)C(C)(C)N2` [Compound No. 1-24, 7-(4-Cyclopentylsulfonyloxy-2-methoxyphenyl)-8-(5-methylthiophen-2-ylcarbonyloxymethyl)-1,3,3-trimethyl-3,4-dihydro-1H-quinoxalin-2-one], the Emax was 85%.
`COc1cc(OS(=O)(=O)Cc2ccccc2C)ccc1-c1ccc2c(c1COc1cc(F)ccc1C)N(C)C(=O)C(C)(C)N2` [Compound No. 1-15, 8-(5-Fluoro-2-methylphenoxymethyl)-7-[2-methoxy-4-(2-methylbenzyl-sulfonyloxy)phenyl]-1,3,3-trimethyl-3,4-dihydro-IH-quinoxalin-2-one] was tested, and the Emax was 88%.
Compound `COc1cc(OS(=O)(=O)C(C)C)ccc1-c1ccc2c(c1COc1cc([N+](=O)[O-])ccc1C)N(C)C(=O)C(C)(C)N2` [Compound No. 1-35, 7-(4-Isopropylsulfonyloxy-2-methoxyphenyl)-8-(2-methyl-5-nitro-phenoxymethyl)-1,3,3-trimethyl-3,4-dihydro-1H-quinoxalin-2-one] has an Emax of 79%.
`COc1cc(OS(=O)(=O)CCC(F)(F)F)ccc1-c1ccc2c(c1COC(=O)c1ccc(C)s1)N(C)C(=O)C(C)(C)N2` [Compound No. 1-20, 7-[2-Methoxy-4-(3,3,3-trifluoropropylsulfonyloxy)phenyl]-8-(5-methylthiophen-2-ylcarbonyloxymethyl)-1,3,3-trimethyl-3,4-dihydro-1H-quinoxalin-2-one] showed an Emax of 74%.
`CCCS(=O)(=O)Oc1ccc(-c2ccc3c(c2COC(=O)c2ccc(C)cc2)N(C)C(=O)C(C)(C)N3)c(OC)c1` [Compound No. 1-39, 7-(2-Methoxy-4-propylsulfonyloxyphenyl)-8-(4-methylbenzoyloxy-methyl)-1,3,3-trimethyl-3,4-dihydro-1H-quinoxalin-2-one] gave an Emax of 80%.
`COc1cc(OS(=O)(=O)CCl)ccc1-c1ccc2c(c1COc1cc(F)ccc1C)N(C)C(=O)C(C)(C)N2` [Compound No. 1-41, 7-(4-Chloromethylsulfonyloxy-2-methoxyphenyl)-8-(5-fluoro-2-methylphenoxymethyl)-1,3,3-trimethyl-3,4-dihydro-1H-quinoxalin-2-one] gave an Emax of 85%.
`COc1cc(OS(=O)(=O)CCCCl)ccc1-c1ccc2c(c1COc1cc(F)ccc1C)N(C)C(=O)C(C)(C)N2` [Compound No. 1-40, 7-[4-(3-Chloropropylsulfonyloxy)-2-methoxyphenyl]-8-(5-fluoro-2-methylphenoxymethyl)-1,3,3-trimethyl-3,4-dihydro-1H-quinoxalin-2-one] was tested, and the Emax was 84%.
For `COc1cc(OS(=O)(=O)CCCNCc2ccccc2)ccc1-c1ccc2c(c1COc1cc(F)ccc1C)N(C)C(=O)C(C)(C)N2` [Compound No. 3-1, 7-[4-(3-Benzylaminopropylsulfonyloxy)-2-methoxyphenyl]-8-(5-fluoro-2-methylphenoxymethyl)-1,3,3-trimethyl-3,4-dihydro-1H-quinoxalin-2-one], the Emax was 78%.
`COc1ccc([N+](=O)[O-])cc1OCc1c(-c2ccc(OS(=O)(=O)C3CC3)cc2OC)ccc2c1N(C)C(=O)C(C)(C)N2` [Compound No. 1-30, 7-(4-Cyclopropylsulfonyloxy-2-methoxyphenyl)-8-(2-methoxy-5-nitrophenoxymethyl)-1,3,3-trimethyl-3,4-dihydro-1H-quinoxalin-2-one] gave an Emax of 74%.
Work on `COc1cc(OS(=O)(=O)C2CC2)ccc1-c1ccc2c(c1COC(=O)c1ccc(C)s1)N(C)C(=O)C(C)(C)N2` [Compound No. 1-19, 7-(4-Cyclopropylsulfonyloxy-2-methoxyphenyl)-8-(5-methyl-thiophen-2-ylcarbonyloxymethyl)-1,3,3-trimethyl-3,4-dihydro-1H-quinoxalin-2-one] yielded an Emax of 88%.
Compound `COc1cc(OS(=O)(=O)CCCN2CCOCC2)ccc1-c1ccc2c(c1COc1cc(F)ccc1C)N(C)C(=O)C(C)(C)N2` [Compound No. 3-3, 8-(5-Fluoro-2-methylphenoxymethyl)-7-[2-methoxy-4-[3-(morpholin-4-yl)propylsulfonyloxy]phenyl]-1,3,3-trimethyl-3,4-dihydro-1H-quinoxalin-2-one] has an Emax of 85%.
In the case of `CCCS(=O)(=O)Oc1ccc(-c2ccc3c(c2COc2cc([N+](=O)[O-])ccc2OC)N(C)C(=O)C(C)(C)N3)c(OC)c1` [Compound No. 1-31, 8-(2-Methoxy-5-nitrophenoxymethyl)-7-(2-methoxy-4-propyl-sulfonyloxyphenyl)-1,3,3-trimethyl-3,4-dihydro-1H-quinoxalin-2-one], the Emax is reported as 76%.
With `COc1cc(OS(=O)(=O)Cc2ccccc2Cl)ccc1-c1ccc2c(c1COc1cc(F)ccc1C)N(C)C(=O)C(C)(C)N2` [Compound No. 1-14, 7-[4-(2-Chlorobenzylsulfonyloxy)-2-methoxyphenyl]-8-(5-fluoro-2-methylphenoxymethyl)-1,3,3-trimethyl-3,4-dihydro-1H-quinoxalin-2-one] the Emax was 86%.
`COc1cc(OS(=O)(=O)C2CCCC2)ccc1-c1ccc2c(c1COc1cc([N+](=O)[O-])ccc1C)N(C)C(=O)C(C)(C)N2` [Compound No. 1-37, 7-(4-Cyclopentylsulfonyloxy-2-methoxyphenyl)-8-(2-methyl-5-nitrophenoxymethyl)-1,3,3-trimethyl-3,4-dihydro-1H-quinoxalin-2-one] gave an Emax of 74%.
